We go through eight molecules from ChEMBL document CHEMBL1909046, “DrugMatrix in vitro pharmacology data”.

In general, pIC50 refers to the negative decadic logarithm of the IC50, by convention in mol/L. As a reminder, the pKi is the Ki on a negative log10 scale, so that one unit is a factor of ten.

SMILES strings stand for the structures. pIC50, pKi: −log10 of the molar value.

Sigma non-opioid intracellular receptor 1, sequence (Q99720 whole entry): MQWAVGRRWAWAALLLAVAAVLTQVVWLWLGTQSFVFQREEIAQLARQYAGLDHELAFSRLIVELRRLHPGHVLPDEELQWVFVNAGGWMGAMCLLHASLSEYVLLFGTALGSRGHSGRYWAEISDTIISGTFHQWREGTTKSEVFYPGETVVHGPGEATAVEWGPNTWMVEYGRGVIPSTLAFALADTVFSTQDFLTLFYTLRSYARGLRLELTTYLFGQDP

One test deals with T1, Calcitonin receptor (Homo sapiens, UniProt P30988).
T1 sequence (P30988 whole entry): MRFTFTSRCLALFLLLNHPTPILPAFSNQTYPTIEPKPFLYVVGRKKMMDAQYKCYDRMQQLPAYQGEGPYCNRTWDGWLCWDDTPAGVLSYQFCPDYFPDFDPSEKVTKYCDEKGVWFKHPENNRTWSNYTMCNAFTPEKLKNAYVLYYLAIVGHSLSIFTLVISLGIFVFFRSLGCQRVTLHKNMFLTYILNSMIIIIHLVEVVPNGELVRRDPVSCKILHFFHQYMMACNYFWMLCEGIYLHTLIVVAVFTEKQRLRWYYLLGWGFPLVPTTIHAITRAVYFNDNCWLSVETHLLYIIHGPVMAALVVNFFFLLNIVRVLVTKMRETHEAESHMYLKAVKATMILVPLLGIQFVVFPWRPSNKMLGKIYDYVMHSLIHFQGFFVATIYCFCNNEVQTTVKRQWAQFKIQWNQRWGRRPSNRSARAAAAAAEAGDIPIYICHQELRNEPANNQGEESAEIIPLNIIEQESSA
The class given is cell membranes, Membrane. The following applies: t47d.
On to `CC[C@@H](CO)NC(=O)[C@@H]1C=C2c3cccc4[nH]cc(c34)C[C@H]2N(C)C1` [METHYLERGONOVINE], for which the IC50 entry is on record as “Not Active”.
Still for that read-out and setting: in the case of `CCOC(=O)N1CCC(=C2c3ccc(Cl)cc3CCc3cccnc32)CC1` [LORATADINE] it was “Not Active”.
Take `CC(C)(C)NC(=O)[C@@H]1C[C@@H]2CCCC[C@@H]2CN1C[C@@H](O)[C@H](Cc1ccccc1)NC(=O)[C@H](CC(N)=O)NC(=O)c1ccc2ccccc2n1`: the IC50 result was “Not Active”.
Same read-out and setting: in the case of `CC(=O)[C@@]1(O)CC[C@H]2[C@@H]3C[C@H](C)C4=CC(=O)CC[C@]4(C)[C@H]3CC[C@@]21C` it was “Not Active”.
In the case of `Nc1nc2nc[nH]c2c(=S)[nH]1` [THIOGUANINE], the IC50 entry is recorded as “Not Active”.
Turning to `COc1nc(C)nc(Cl)c1NC1=NCCN1` [MOXONIDINE], the IC50 entry is recorded as “Not Active”.
Take `N[C@@H](Cc1cc(I)c(Oc2ccc(O)c(I)c2)c(I)c1)C(=O)O` [LIOTHYRONINE]: the IC50 entry is “Not Active”.
For the molecule `C[C@@H]1CN(c2c(F)c(N)c3c(=O)c(C(=O)O)cn(C4CC4)c3c2F)C[C@H](C)N1` [SPARFLOXACIN], the IC50 result is “Not Active”.

A further test addresses Sigma non-opioid intracellular receptor 1 (Homo sapiens, UniProt Q99720). The test can be described thus: DRUGMATRIX: Sigma1 radioligand binding (ligand: [3H] Haloperidol). The class given is cell membranes, Jurkat, Membrane. The conditions noted are these: jurkat; Not Active = under 50% inhibition at 10 µM.
On to `CC[C@@H](CO)NC(=O)[C@@H]1C=C2c3cccc4[nH]cc(c34)C[C@H]2N(C)C1` [METHYLERGONOVINE], for which the IC50 entry is “Not Active”.
Consider `CCOC(=O)N1CCC(=C2c3ccc(Cl)cc3CCc3cccnc32)CC1` [LORATADINE], for which the IC50 entry is “Not Active”.
As for `CC(C)(C)NC(=O)[C@@H]1C[C@@H]2CCCC[C@@H]2CN1C[C@@H](O)[C@H](Cc1ccccc1)NC(=O)[C@H](CC(N)=O)NC(=O)c1ccc2ccccc2n1`, the IC50 entry is reported as “Not Active”.
`CC(=O)[C@@]1(O)CC[C@H]2[C@@H]3C[C@H](C)C4=CC(=O)CC[C@]4(C)[C@H]3CC[C@@]21C`: the IC50 entry is “Not Active”.
With `Nc1nc2nc[nH]c2c(=S)[nH]1` [THIOGUANINE], the IC50 entry is “Not Active”.
The same measure, in the same setting: as for `COc1nc(C)nc(Cl)c1NC1=NCCN1` [MOXONIDINE], the entry is “Not Active”; as for `N[C@@H](Cc1cc(I)c(Oc2ccc(O)c(I)c2)c(I)c1)C(=O)O` [LIOTHYRONINE], “Not Active”; as for `C[C@@H]1CN(c2c(F)c(N)c3c(=O)c(C(=O)O)cn(C4CC4)c3c2F)C[C@H](C)N1` [SPARFLOXACIN], “Not Active”.

For a further test, the target named is Sodium-dependent dopamine transporter (Homo sapiens, UniProt Q01959). The test is described as follows: DRUGMATRIX: Dopamine Transporter radioligand binding (ligand: [125I] RTI-55). The test is classed as cell membranes, CHO-K1, Membrane. The following applies: Not Active = under 50% inhibition at 10 µM; read-out: IC50.
Sodium-dependent dopamine transporter, sequence (Q01959 whole entry): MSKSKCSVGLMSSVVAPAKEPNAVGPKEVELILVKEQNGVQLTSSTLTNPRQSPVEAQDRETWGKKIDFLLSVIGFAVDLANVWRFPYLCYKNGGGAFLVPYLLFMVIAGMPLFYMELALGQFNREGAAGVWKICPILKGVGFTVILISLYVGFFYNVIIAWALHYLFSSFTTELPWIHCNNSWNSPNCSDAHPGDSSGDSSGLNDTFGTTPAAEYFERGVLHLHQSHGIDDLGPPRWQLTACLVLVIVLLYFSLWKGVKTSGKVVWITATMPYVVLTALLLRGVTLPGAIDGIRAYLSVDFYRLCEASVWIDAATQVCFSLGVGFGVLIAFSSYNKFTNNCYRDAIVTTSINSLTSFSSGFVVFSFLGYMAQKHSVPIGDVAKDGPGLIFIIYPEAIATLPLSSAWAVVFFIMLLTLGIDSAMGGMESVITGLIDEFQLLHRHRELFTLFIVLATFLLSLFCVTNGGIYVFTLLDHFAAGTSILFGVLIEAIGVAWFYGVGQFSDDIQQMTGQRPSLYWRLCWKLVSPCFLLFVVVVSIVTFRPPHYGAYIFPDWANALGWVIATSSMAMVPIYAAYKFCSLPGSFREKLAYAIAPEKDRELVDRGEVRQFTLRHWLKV
Turning to `CC(C)(C)NC(=O)[C@@H]1C[C@@H]2CCCC[C@@H]2CN1C[C@@H](O)[C@H](Cc1ccccc1)NC(=O)[C@H](CC(N)=O)NC(=O)c1ccc2ccccc2n1`, the pIC50 is 4.45.

Still in this test, the particulars now being: Not Active = under 50% inhibition at 10 µM; read-out: Ki.
Consider `CC(C)(C)NC(=O)[C@@H]1C[C@@H]2CCCC[C@@H]2CN1C[C@@H](O)[C@H](Cc1ccccc1)NC(=O)[C@H](CC(N)=O)NC(=O)c1ccc2ccccc2n1`, for which the pKi was 4.55.

The test is the same for the next values; noted with them: cho-k1; Not Active = under 50% inhibition at 10 µM.
Take `CC[C@@H](CO)NC(=O)[C@@H]1C=C2c3cccc4[nH]cc(c34)C[C@H]2N(C)C1` [METHYLERGONOVINE]: the IC50 entry was “Not Active”.
As for `CCOC(=O)N1CCC(=C2c3ccc(Cl)cc3CCc3cccnc32)CC1` [LORATADINE], the IC50 result is “Not Active”.
`CC(=O)[C@@]1(O)CC[C@H]2[C@@H]3C[C@H](C)C4=CC(=O)CC[C@]4(C)[C@H]3CC[C@@]21C`: the IC50 entry is listed as “Not Active”.
Consider `Nc1nc2nc[nH]c2c(=S)[nH]1` [THIOGUANINE], for which the IC50 entry was “Not Active”.
The same measure, in the same setting: in the case of `COc1nc(C)nc(Cl)c1NC1=NCCN1` [MOXONIDINE] it was “Not Active”; in that of `N[C@@H](Cc1cc(I)c(Oc2ccc(O)c(I)c2)c(I)c1)C(=O)O` [LIOTHYRONINE], “Not Active”; in that of `C[C@@H]1CN(c2c(F)c(N)c3c(=O)c(C(=O)O)cn(C4CC4)c3c2F)C[C@H](C)N1` [SPARFLOXACIN], “Not Active”.

A further test deals with Melanocortin receptor 4 (Homo sapiens, UniProt P32245). The test is classed as cell membranes, HEK293, Membrane. The following applies: hek293.
Melanocortin receptor 4, sequence (P32245 whole entry): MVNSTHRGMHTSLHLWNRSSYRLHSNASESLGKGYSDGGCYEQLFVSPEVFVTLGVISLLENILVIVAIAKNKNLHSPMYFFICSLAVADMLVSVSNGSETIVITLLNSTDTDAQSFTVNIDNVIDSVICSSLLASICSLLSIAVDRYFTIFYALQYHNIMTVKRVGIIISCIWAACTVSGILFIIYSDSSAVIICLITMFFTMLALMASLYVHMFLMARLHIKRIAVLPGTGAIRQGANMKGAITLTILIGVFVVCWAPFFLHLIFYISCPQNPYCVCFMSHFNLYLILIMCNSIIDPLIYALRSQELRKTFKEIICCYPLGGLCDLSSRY
Take `CC[C@@H](CO)NC(=O)[C@@H]1C=C2c3cccc4[nH]cc(c34)C[C@H]2N(C)C1` [METHYLERGONOVINE]: the IC50 result is given as “Not Active”.
In the case of `CCOC(=O)N1CCC(=C2c3ccc(Cl)cc3CCc3cccnc32)CC1` [LORATADINE], the IC50 entry is recorded as “Not Active”.
The same measure, in the same setting: as for `CC(C)(C)NC(=O)[C@@H]1C[C@@H]2CCCC[C@@H]2CN1C[C@@H](O)[C@H](Cc1ccccc1)NC(=O)[C@H](CC(N)=O)NC(=O)c1ccc2ccccc2n1`, the entry is “Not Active”.
For the molecule `CC(=O)[C@@]1(O)CC[C@H]2[C@@H]3C[C@H](C)C4=CC(=O)CC[C@]4(C)[C@H]3CC[C@@]21C`, the IC50 entry is given as “Not Active”.
On the same count and under the same terms, as for `Nc1nc2nc[nH]c2c(=S)[nH]1` [THIOGUANINE], the entry is “Not Active”.
Still for that read-out and setting: as for `COc1nc(C)nc(Cl)c1NC1=NCCN1` [MOXONIDINE], the entry is “Not Active”; as for `N[C@@H](Cc1cc(I)c(Oc2ccc(O)c(I)c2)c(I)c1)C(=O)O` [LIOTHYRONINE], “Not Active”; as for `C[C@@H]1CN(c2c(F)c(N)c3c(=O)c(C(=O)O)cn(C4CC4)c3c2F)C[C@H](C)N1` [SPARFLOXACIN], “Not Active”.

The target in a further test is T2, Muscarinic acetylcholine receptor M5 (Homo sapiens, UniProt P08912). Further: in other assays of this panel Not Active means under 50% inhibition at 10 µM.
T2 sequence (P08912 whole entry): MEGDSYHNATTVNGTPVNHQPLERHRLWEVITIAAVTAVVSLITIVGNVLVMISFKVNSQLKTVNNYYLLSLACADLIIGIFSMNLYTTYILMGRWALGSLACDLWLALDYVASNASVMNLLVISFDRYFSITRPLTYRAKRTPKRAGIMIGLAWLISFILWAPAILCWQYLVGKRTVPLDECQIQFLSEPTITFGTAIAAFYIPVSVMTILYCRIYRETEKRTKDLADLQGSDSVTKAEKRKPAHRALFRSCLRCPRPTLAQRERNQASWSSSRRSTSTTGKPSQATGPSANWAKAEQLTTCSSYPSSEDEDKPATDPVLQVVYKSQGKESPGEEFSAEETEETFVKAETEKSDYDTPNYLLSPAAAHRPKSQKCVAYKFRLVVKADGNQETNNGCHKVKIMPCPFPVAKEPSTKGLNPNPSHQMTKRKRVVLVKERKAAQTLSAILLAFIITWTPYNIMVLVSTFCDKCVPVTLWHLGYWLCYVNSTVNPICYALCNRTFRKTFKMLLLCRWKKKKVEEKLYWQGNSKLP
The test is classed as cell membranes, CHO-K1, Membrane. The following applies: cho-k1.
With `CC[C@@H](CO)NC(=O)[C@@H]1C=C2c3cccc4[nH]cc(c34)C[C@H]2N(C)C1` [METHYLERGONOVINE], the IC50 result is on record as “Not Active”.
For `CCOC(=O)N1CCC(=C2c3ccc(Cl)cc3CCc3cccnc32)CC1` [LORATADINE], the IC50 entry is listed as “Not Active”.
As to `CC(C)(C)NC(=O)[C@@H]1C[C@@H]2CCCC[C@@H]2CN1C[C@@H](O)[C@H](Cc1ccccc1)NC(=O)[C@H](CC(N)=O)NC(=O)c1ccc2ccccc2n1`, the IC50 entry was “Not Active”.
The same measure, in the same setting: as for `CC(=O)[C@@]1(O)CC[C@H]2[C@@H]3C[C@H](C)C4=CC(=O)CC[C@]4(C)[C@H]3CC[C@@]21C`, the entry is “Not Active”; as for `Nc1nc2nc[nH]c2c(=S)[nH]1` [THIOGUANINE], “Not Active”.
Turning to `COc1nc(C)nc(Cl)c1NC1=NCCN1` [MOXONIDINE], the IC50 result was “Not Active”.
Turning to `N[C@@H](Cc1cc(I)c(Oc2ccc(O)c(I)c2)c(I)c1)C(=O)O` [LIOTHYRONINE], the IC50 result is “Not Active”.
Still for that read-out and setting: in the case of `C[C@@H]1CN(c2c(F)c(N)c3c(=O)c(C(=O)O)cn(C4CC4)c3c2F)C[C@H](C)N1` [SPARFLOXACIN] it was “Not Active”.

The next test has as its target T3, Estrogen receptor (Homo sapiens, UniProt P03372). Further: in other assays of this panel Not Active means under 50% inhibition at 10 µM.
T3 sequence (P03372 whole entry): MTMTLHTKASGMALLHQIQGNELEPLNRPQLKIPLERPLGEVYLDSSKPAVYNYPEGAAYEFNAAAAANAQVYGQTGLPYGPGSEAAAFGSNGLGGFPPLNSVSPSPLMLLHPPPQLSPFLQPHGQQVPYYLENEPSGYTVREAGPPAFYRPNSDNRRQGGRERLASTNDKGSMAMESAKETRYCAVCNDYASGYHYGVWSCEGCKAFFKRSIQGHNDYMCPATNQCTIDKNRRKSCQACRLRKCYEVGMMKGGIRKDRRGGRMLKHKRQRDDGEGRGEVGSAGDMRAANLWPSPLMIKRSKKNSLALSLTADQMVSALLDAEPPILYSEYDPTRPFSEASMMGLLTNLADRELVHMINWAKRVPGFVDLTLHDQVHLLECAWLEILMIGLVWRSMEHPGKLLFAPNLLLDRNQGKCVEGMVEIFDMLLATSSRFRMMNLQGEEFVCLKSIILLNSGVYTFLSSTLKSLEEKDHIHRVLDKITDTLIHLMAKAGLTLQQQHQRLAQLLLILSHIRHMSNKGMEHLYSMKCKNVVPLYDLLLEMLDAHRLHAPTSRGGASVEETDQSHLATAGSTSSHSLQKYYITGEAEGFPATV
The conditions noted are these: sf9.
For `CC[C@@H](CO)NC(=O)[C@@H]1C=C2c3cccc4[nH]cc(c34)C[C@H]2N(C)C1` [METHYLERGONOVINE], the IC50 entry is given as “Not Active”.
The same measure, in the same setting: as for `CCOC(=O)N1CCC(=C2c3ccc(Cl)cc3CCc3cccnc32)CC1` [LORATADINE], the entry is “Not Active”; as for `CC(C)(C)NC(=O)[C@@H]1C[C@@H]2CCCC[C@@H]2CN1C[C@@H](O)[C@H](Cc1ccccc1)NC(=O)[C@H](CC(N)=O)NC(=O)c1ccc2ccccc2n1`, “Not Active”; as for `CC(=O)[C@@]1(O)CC[C@H]2[C@@H]3C[C@H](C)C4=CC(=O)CC[C@]4(C)[C@H]3CC[C@@]21C`, “Not Active”.
Consider `Nc1nc2nc[nH]c2c(=S)[nH]1` [THIOGUANINE], for which the IC50 result is given as “Not Active”.
On the same count and under the same terms, as for `COc1nc(C)nc(Cl)c1NC1=NCCN1` [MOXONIDINE], the entry is “Not Active”.
The same measure, in the same setting: in the case of `N[C@@H](Cc1cc(I)c(Oc2ccc(O)c(I)c2)c(I)c1)C(=O)O` [LIOTHYRONINE] it was “Not Active”; in that of `C[C@@H]1CN(c2c(F)c(N)c3c(=O)c(C(=O)O)cn(C4CC4)c3c2F)C[C@H](C)N1` [SPARFLOXACIN], “Not Active”.
